{"source": "patent EP0526258A2", "about": "“A87689 Compounds, their production and use as phospholipase-A2 inhibitors” (ELI LILLY AND COMPANY, priority 1991, dated 1993)", "system": "lipoidalamine-induced arthritis", "assay": "Lipoidalamine-induced arthritis model", "format": "in vivo", "details": "rat, positive control, 0.1 mg/kg orally", "text": "The lipoidalamine-induced arthritis test is a model of systemic inflammation and arthritis induced by the adjuvant substance N, N-dioctadecyl-N′,N′-bis(2-hydroxyethyl)propanediamine (LA) suspended in mineral oil. The disease that results is very similar to that occurring in Freund's complete adjuvant (FCA) treated rats according to Chang [Chang, Y., Pearson, C. M., and Abe, C., \"Adjuvant polyarthritis IV. Induction by a synthetic adjuvant: immunologic, histopathologic, and other studies,\" Arth. Rheum.23: 62-71, (1980)]. Inflammation occurs in many tissues but is most striking in the spleen and joints. Compounds are tested for their ability to modulate splenic and joint inflammation in established disease (treatment starts on day 9).\nThe animals (Lewis/Sprague Dawley, males, 200-220 grams) are divided into groups of 5 and housed in hanging cages with food and water ad libitum. On day 0 they are injected with 7.5 mg of LA subcutaneously at the base of the tail. On day 9 the animals are weighed and compound administration is started. The compounds are suspended, using a tissue homogenizer, in a 1% CMC solution. The screening dose is 50 mg/kg orally. Compounds are administered once daily for 5 days (days 9-13) with no dosing on day 14. On day 15 the animals are weighed again and hind paw volume measured using a water manometer. The animals are then anesthetized and bled via cardiac puncture. After the animals are euthanized, the spleen is removed and weighed and the hind feet are removed just above the ankle joint and weighed. The individual blood samples are analyzed for fibrinogen. Means and standard errors for all of these parameters are then calculated, and percent differences from the diseased (LA) control are figured. Statistical significance is determined utilizing the Dunnet T calculation on the raw data. The positive control for the LA arthritis test is dexamethasone. Dexamethasone at a dose of 0.1 mg/kg orally will inhibit paw swelling by 80-90% and spleen weight by 90-100%. […]", "data": [{"molecule": "C[C@@H]1C[C@H]2[C@@H]3CCC4=CC(=O)C=C[C@]4(C)[C@@]3(F)[C@@H](O)C[C@]2(C)[C@@]1(O)C(=O)CO", "note": "[Dexamethasone, dexamethasone]", "values": [{"measurement": "inhibit paw swelling", "value": "80-90%"}, {"measurement": "inhibit spleen weight", "value": "90-100%"}, {"measurement": "fibrinogen inhibited", "setting": "more variable", "value": "50-70%"}]}]}
